Laboratory results reported in patent US6420385B1, “Substituted pyrimidinone and pyridone compounds and methods of use” (Amgen Inc., priority 1996, dated 2002).

System: TNF production by monocytes activated with bacterial lipopolysaccharide (LPS)
Assay: Lipopolysaccharide-activated monocyte TNF production assay (LPS induced TNF release)
Assay type: cell-based, human
Details: TNF in supernatant by ELISA
Description: Lipopolysaccharide-activated Monocyte TNF Production Assay
Test compounds were evaluated in vitro for the ability to inhibit the production of TNF by monocytes activated with bacterial lipopolysaccharide (LPS). Fresh residual source leukocytes (a byproduct of plateletpheresis) were obtained from a local blood bank, and peripheral blood mononuclear cells (PBMCs) were isolated by density gradient centrifugation on Ficol-Paque Plus (Pharmacia). PBMCs were suspended at 2×10^6/ ml in DMEM supplemented to contain 2% FCS, 10 mM, 0.3 mg/ml glutamate, 100 U/ml penicillin G and […] streptomycin sulfate (complete media). Cells were plated into Falcon flat bottom, 96 well culture plates (200 μl/well) and cultured overnight at 37° C. and 6% CO2. Non-adherent cells were removed by washing with 200 μl/well of fresh medium. Wells containing adherent cells (˜70% monocytes) were replenished with 100 μl of fresh medium.
Preparation of Test Compound Stock Solutions
Test compounds were dissolved in […]. Compound stock solutions were prepared to an initial concentration of […]. Stocks were diluted initially to 20-200 μM in complete media. Nine two-fold serial dilutions of each compound were then prepared in complete medium.
Treatment of Cells with Test Compounds and Activation of TNF Production with Lipopolysaccharide
One hundred microliters of each test compound dilution were added to microtiter wells containing adherent monocytes and 100 μl complete medium. Monocytes were cultured with test compounds for 60 min at which time 25 μl of complete medium containing 30 ng/ml lipopolysaccharide from E. coli K532 were added to each well. Cells were cultured an additional 4 hrs. Culture supernatants were then removed and TNF presence in the supernatants was quantified using an ELISA.
Flat bottom, 96 well Corning High Binding ELISA plates were coated overnight (4° C.) with 150 μL/well of 3 μg/ml murine anti-human TNF-α MAb (R&D Systems #MAB210). Wells were then blocked for 1 hr at room temperature with 200 μL/well of CaCl2-free ELISA buffer supplemented to contain 20 mg/ml BSA (standard ELISA buffer: […], 150 mM NaCl, 2 mM CaCl2, 0.15 mM thimerosal, pH 7.4). Plates were washed and replenished with 100 μl of test supernatants (diluted 1:3) or standards. Standards consisted of eleven 1.5-fold serial dilutions from a stock of 1 ng/ml recombinant human TNF (R&D Systems). Plates were incubated at room temperature for 1 hr on orbital shaker (300 rpm), washed and replenished with 100 μl/well of 0.5 μg/ml goat anti-human TNF-α (R&D systems #AB-210-NA) biotinylated at a 4:1 ratio. Plates were incubated for 40 min, washed and replenished with 100 μl/well of alkaline phosphatase-conjugated streptavidin (Jackson ImmunoResearch #016-050-084) at 0.02 μg/ml. Plates were incubated 30 min, washed and replenished with 200 μl/well of 1 mg/ml of p-nitrophenyl phosphate. After 30 min, plates were read at […] on a Vmax plate reader.
Standard curve data were fit to a second order polynomial and unknown TNF-α concentrations determined from their OD by solving this equation for concentration. TNF concentrations were then plotted vs. test compound concentration using a second order polynomial. This equation was then used to calculate the concentration of test compounds causing a 50% reduction in TNF production.

## O=c1[nH]c(-c2cccs2)cc(-c2ccncc2)c1-c1ccccc1 [3-Phenyl-4-(4-pyridyl)-6-(2-thienyl)-2(1H)-pyridone]
Homo sapiens, Monocyte
  IC50: ≤ 20 µM

## Cc1ccc(-c2cc(-c3ccncc3)c(-c3ccccc3)c(=O)[nH]2)c(C)c1 [6-(2,4-Dimethylphenyl)-3-phenyl-4-(4-pyridyl)-2(1H)-pyridone]
Homo sapiens, Monocyte
  IC50: ≤ 20 µM

## Cn1c(NCCC(N)c2ccccc2)nc(-c2ccncc2)c(-c2cccc(C(F)(F)F)c2)c1=O (stereo not shown) [2-((3-Amino-3-phenylpropyl)-amino)-3-methyl-6-(4-pyridyl)5-(3-trifluoromethylphenyl)-4-(3H)-pyrimidinone]
  IC50: ≤ 5 µM

## Cc1ccccc1C(N)CCNc1nc(-c2ccncc2)c(-c2cccc(C(F)(F)F)c2)c(=O)n1C (stereo not shown) [2-((3-Amino-3-(2-methylphenyl)propyl)-amino)-3-methyl-6-(4-pyridyl)5-(3-trifluoromethylphenyl)-4-(3H)-pyrimidinone]
  IC50: ≤ 5 µM

## O=c1[nH]c(-c2ccccc2)cc(-c2ccncc2)c1-c1ccccc1 [3,6-Diphenyl-4-(4-pyridyl)-2(1H)-pyridone]
Homo sapiens, Monocyte
  IC50: ≤ 20 µM

## O=c1[nH]c(-c2ccco2)cc(-c2ccncc2)c1-c1ccccc1 [6-(2-Furyl)-3-phenyl-4-(4-pyridyl)-2(1H)-pyridone]
Homo sapiens, Monocyte
  IC50: ≤ 20 µM

## Cc1ccc(-c2cc(-c3ccncc3)c(-c3ccccc3)c(=O)[nH]2)cc1 [6-(4-Methylphenyl)-3-phenyl-4-(4-pyridyl)-2(1H)-pyridone]
Homo sapiens, Monocyte
  IC50: ≤ 20 µM
